From patent publication EP1171607B1, “STREPTOKINASE FRAGMENTS AND THEIR USE FOR INHIBITING CELL DEATH” (Rabkin, Simon W., priority 1999, dated 2000)
Where no end group is shown, it is not given here.

What was measured:
TF-1 = TF-1 starved 30 hours in 1% fetal calf serum; 20 µg/ml peptide
Experimental: (§1) The hematopoietic, growth factor dependent cell lines, M07E and TF-1 (Mijajima, CDNAX Research Institute, Palo Alto, California), were starved for 30 hours in DMEM containing 1% fetal calf serum (Hyclone, Logan, Utah) in the presence or absence of 20 µg/ml of the 20mer peptide (SEQ. ID NO. 6). Cell viability was measured by one of two methods, trypan blue exclusion or ^3H-thymidine incorporation (Alai et al., J. Biol. Chem. 267:18021-18025, 1992).

M07E = M07E starved 30 hours in 1% fetal calf serum; 20 µg/ml peptide
Experimental: as §1

**Q.** For SVDVEYTQFTDFRGKLTKLL [Peptide 20mer], which “TRYPAN BLUE COUNTS (% VIABILITY)” value (TF-1) is on record?
**A.** The value was 29 ± 1%.

**Q.** What about the “TRYPAN BLUE COUNTS (% VIABILITY)” value (M07E) of the same sequence?
**A.** Its value is 20 ± 0.5%.
